This note sets out measurements from ChEMBL document CHEMBL1201862, “PubChem BioAssay data set” (2004).

Among the test systems are 786-0; A549; ACHN; CCRF-CEM; HCT-15; HT-29; Malme-3M; NCI-H460; OVCAR-3; SF-295; SK-MEL-28; SK-OV-3; SR; U-251; A498; UACC-62; RXF 393.
What all share (experiment): growth of human tumour cells (NCI), 48 h

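Interpolation was linear, between the two tested concentrations surrounding the appropriate level; five concentrations were tested over 48 hours in 96-well plates. Here, GI50 denotes the concentration required for 50% inhibition of growth.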 Activity calls are given as the source filed them. Cut-off read from the data, not from the text of the source: active = GI50 up to about 1.1 µM and inactive = higher.

As for `CCCCc1c2c([n+]([O-])c3c1CCCC3)CCCC2`, the GI50 in the assay with 786-0 is > 100 µM (inactive); in the assay on A549, > 100 µM (inactive); with ACHN, 5.12 µM (inactive); in the assay with CCRF-CEM, 19.3 µM (inactive); in the assay on HCT-15 it was 21.6 µM; in the assay on HT-29 it was > 100 µM (inactive). Besides, the GI50 in the assay on Malme-3M was > 100 µM (inactive); with NCI-H460, > 100 µM (inactive); in the assay on OVCAR-3, 31 µM (inactive); with SF-295, 28 µM (inactive); in the assay on SK-MEL-28, 32.8 µM (inactive); with SK-OV-3, 98.4 µM (inactive). Also, the GI50 in the assay with SR is 29.6 µM (inactive); in the assay with U-251 it was > 100 µM (inactive).
For `Cc1nc2ccccc2c(=O)n1-c1ccccc1I`, the GI50 with 786-0 is > 100 µM (inactive); in the assay on A498, > 100 µM (inactive); with A549 it was > 100 µM (inactive); in the assay on ACHN, > 100 µM (inactive); with CCRF-CEM, > 100 µM (inactive); in the assay with HCT-15, more than 100 µM. The GI50 in the assay on HT-29, in the assay with Malme-3M, in the assay with NCI-H460, with OVCAR-3, with SF-295 and with SK-MEL-28 was > 100 µM (inactive) each time. Moreover, the GI50 with SK-OV-3, in the assay with SR, in the assay with U-251 and with UACC-62 was > 100 µM (inactive) in each case.
Take `Cc1n[nH]c(=S)n(C)c1=S`: the GI50 was > 100 µM (inactive) in the assay with 786-0; > 100 µM (inactive) with A498; > 100 µM (inactive) with A549; > 100 µM (inactive) in the assay on ACHN; > 100 µM (inactive) in the assay on CCRF-CEM; more than 100 µM in the assay with HCT-15. Also, the GI50 in the assay on Malme-3M, in the assay on NCI-H460, in the assay on OVCAR-3, with RXF 393, with SF-295 and in the assay with SK-MEL-28 was > 100 µM (inactive) throughout. In addition, the GI50 in the assay with SK-OV-3, in the assay on U-251 and in the assay on UACC-62 was > 100 µM (inactive) in each case.
For the molecule `COc1ccccc1C12OC(=O)C1(C)Oc1ccccc1C2=O` (stereo unspecified), the GI50 in the assay with 786-0 is > 100 µM (inactive); with A498, > 100 µM (inactive); with A549, > 100 µM (inactive); in the assay with ACHN, > 100 µM (inactive); with CCRF-CEM, > 100 µM (inactive); in the assay on HCT-15 it was more than 100 µM. The GI50 in the assay with HT-29, in the assay with Malme-3M, in the assay with NCI-H460, in the assay with OVCAR-3, in the assay with RXF 393 and in the assay with SF-295 was > 100 µM (inactive) each time. For the same molecule, the GI50 in the assay with SK-MEL-28, with SK-OV-3, in the assay with U-251 and in the assay on UACC-62 was > 100 µM (inactive) each time.
On to `N#Cc1c(C[n+]2ccccc2)c2ccccc2oc1=O`, for which the GI50 with 786-0 is > 100 µM (inactive); in the assay on A549 it was > 100 µM (inactive); with ACHN, > 100 µM (inactive); with CCRF-CEM it was > 100 µM (inactive); with HCT-15, more than 100 µM; in the assay on HT-29 it was > 100 µM (inactive). The GI50 with Malme-3M, in the assay on NCI-H460, with OVCAR-3, with SF-295, in the assay with SK-MEL-28 and in the assay with SK-OV-3 was > 100 µM (inactive) throughout. The GI50 in the assay with SR, in the assay with U-251 and with UACC-62 was > 100 µM (inactive) each time.
For the molecule `CC1=C(c2nc3ccccc3s2)C(=O)OC1(C)C`, the GI50 is > 100 µM (inactive) in the assay on 786-0; > 100 µM (inactive) in the assay with A549; > 100 µM (inactive) in the assay with ACHN; > 100 µM (inactive) with CCRF-CEM; more than 100 µM with HCT-15; > 100 µM (inactive) in the assay on HT-29. In addition, the GI50 with Malme-3M, with NCI-H460, with OVCAR-3, in the assay with SF-295, with SK-MEL-28 and in the assay on SK-OV-3 was > 100 µM (inactive) in each case. Also, the GI50 with SR, in the assay with U-251 and with UACC-62 was > 100 µM (inactive) throughout.
Turning to `CC1(C)C(=O)C(=Cc2ccco2)C1=O`, the GI50 in the assay on 786-0 is > 100 µM (inactive); in the assay on A498, > 100 µM (inactive); with A549, > 100 µM (inactive); with ACHN, > 100 µM (inactive); with CCRF-CEM it was > 100 µM (inactive); with HCT-15, more than 100 µM. In addition, the GI50 with HT-29, with Malme-3M, in the assay on NCI-H460, with SF-295, with SK-MEL-28 and in the assay with SK-OV-3 was > 100 µM (inactive) in each case. Also, the GI50 in the assay with SR, in the assay with U-251 and in the assay on UACC-62 was > 100 µM (inactive) throughout.
Consider `COc1cc([C@@H]2c3cc4c(cc3[C@@H](NC(=O)c3ccc([N+](=O)[O-])cc3)C3COC(=O)[C@@H]32)OCO4)cc(OC)c1O` (stereo partly specified), for which the GI50 is 0.242 µM (active) with 786-0; 1.28 µM (inactive) in the assay with A498; 0.0189 µM (active) with A549; 0.194 µM (active) in the assay with ACHN; 0.124 µM (active) in the assay on CCRF-CEM; 1.57 µM in the assay on HCT-15. Further, the GI50 is 1.58 µM (inactive) with HT-29; 0.817 µM (active) with Malme-3M; < 0.01 µM (active) with NCI-H460; 1.76 µM (inactive) in the assay on OVCAR-3; 2.55 µM (inactive) in the assay on RXF 393; 0.249 µM (active) with SF-295. Further, the GI50 was 1.97 µM (inactive) in the assay with SK-MEL-28, 0.334 µM (active) in the assay on SK-OV-3, 0.108 µM (active) with U-251 and 0.241 µM (active) in the assay on UACC-62.
For the molecule `NC1=NN(c2ccccc2)C(=O)C1/C(=N\NC(=O)c1cc2ccccc2cc1O)C(=O)Nc1ccc(Cl)cc1` (stereo unspecified), the GI50 is 20.2 µM (inactive) in the assay with 786-0; 24.2 µM (inactive) in the assay with A498; 44.5 µM (inactive) in the assay on A549; 26 µM (inactive) in the assay on ACHN; 3.73 µM (inactive) in the assay with CCRF-CEM; 10.5 µM in the assay on HCT-15. Besides, the GI50 in the assay on HT-29 was 42.5 µM (inactive); with Malme-3M it was 30.8 µM (inactive); in the assay on NCI-H460 it was 13.5 µM (inactive); with OVCAR-3 it was 10.9 µM (inactive); in the assay with SF-295, 35.5 µM (inactive); in the assay on SK-MEL-28 it was 25.1 µM (inactive). In addition, the GI50 with SK-OV-3 was 51.5 µM (inactive); with U-251 it was 31.5 µM (inactive); in the assay on UACC-62, 19 µM (inactive).
`O=C(NCCNCCO)c1cccc2ccc(-c3ccccc3)nc12`: the GI50 in the assay with 786-0 was 6.87 µM (inactive); with A498, 1.8 µM (inactive); in the assay on A549, 2.93 µM (inactive); with ACHN, 2.26 µM (inactive); in the assay on CCRF-CEM, 3.4 µM (inactive); with HCT-15, 3.8 µM. Moreover, the GI50 with HT-29 is 4.13 µM (inactive); with NCI-H460 it was 2.02 µM (inactive); in the assay on OVCAR-3, 7.66 µM (inactive); in the assay on RXF 393, 3.98 µM (inactive); in the assay with SF-295, 5.58 µM (inactive); in the assay on SK-MEL-28, 10.4 µM (inactive). The GI50 is 8.13 µM (inactive) in the assay with SK-OV-3, 4.82 µM (inactive) in the assay on U-251 and 4.54 µM (inactive) in the assay on UACC-62.
In the case of `OC1OCC(COc2cc(Cl)c(Cl)cc2Cl)OC1O` (stereo unspecified), the GI50 is 77.1 µM (inactive) in the assay on 786-0; 44.5 µM (inactive) in the assay on A498; 55 µM (inactive) in the assay on A549; 25.3 µM (inactive) in the assay on ACHN; 32 µM (inactive) in the assay on CCRF-CEM; 19.8 µM with HCT-15. In addition, the GI50 in the assay with HT-29 was 65.8 µM (inactive); in the assay on Malme-3M, 61.2 µM (inactive); with NCI-H460, 44.5 µM (inactive); with OVCAR-3 it was 25.5 µM (inactive); in the assay on SF-295, 45.8 µM (inactive); in the assay with SK-MEL-28 it was 65.3 µM (inactive). The figures for the GI50 in the assay on SK-OV-3, in the assay on U-251 and in the assay with UACC-62 were 88.1 µM (inactive), 36.6 µM (inactive) and 33 µM (inactive), respectively.
Take `COc1ccc(N2C(=O)C3CC(c4ccc(Br)cc4)c4c([nH]c5ccccc45)C3C2=O)cc1` (stereo unspecified): the GI50 is 2.2 µM (inactive) with 786-0; 9.59 µM (inactive) with A498; 2.71 µM (inactive) in the assay with A549; 4.51 µM (inactive) in the assay on ACHN; 8.59 µM (inactive) in the assay on CCRF-CEM; 90.6 µM in the assay with HCT-15. Besides, the GI50 was 13.2 µM (inactive) in the assay on HT-29; 14.8 µM (inactive) with Malme-3M; 4.92 µM (inactive) in the assay on NCI-H460; 10.8 µM (inactive) in the assay with SF-295; 11.5 µM (inactive) in the assay with SK-MEL-28; 16.1 µM (inactive) in the assay with UACC-62.
Regarding `COc1cc(/C=C/c2ccc(OC)c(O)c2)cc(OC)c1`, the GI50 in the assay with 786-0 is 15.7 µM (inactive); in the assay on A498 it was 29.4 µM (inactive); with A549 it was 4.82 µM (inactive); in the assay with ACHN, 7.52 µM (inactive); in the assay with CCRF-CEM, 3.15 µM (inactive); with HCT-15, 3.94 µM. The GI50 in the assay on HT-29 was 16.7 µM (inactive); in the assay with Malme-3M it was 10 µM (inactive); in the assay with NCI-H460, 3.65 µM (inactive); in the assay with OVCAR-3, 2.16 µM (inactive); in the assay on RXF 393, 1.25 µM (inactive); in the assay on SF-295, 1.96 µM (inactive). Further, the GI50 is 6.08 µM (inactive) in the assay with SK-MEL-28, 36.1 µM (inactive) with SK-OV-3, 3.92 µM (inactive) in the assay with U-251 and 3.15 µM (inactive) in the assay with UACC-62.
As for `COc1ccc(/C=C\c2cc(OC)c(OC)c(OC)c2)cc1`, the GI50 with 786-0 was 0.000395 µM (active); in the assay with A498, < 0.01 µM (active); in the assay on A549, 0.00051 µM (active); with ACHN it was 0.000653 µM (active); in the assay with CCRF-CEM, 0.000269 µM (active); in the assay with HCT-15, 0.000448 µM. The GI50 in the assay on HT-29 is < 0.01 µM (active); with Malme-3M, 0.00184 µM (active); with NCI-H460, < 0.01 µM (active); in the assay with OVCAR-3 it was < 0.0001 µM (active); in the assay on SF-295, 0.000185 µM (active); with SK-MEL-28, < 0.01 µM (active). Further, the GI50 with SK-OV-3 was 0.000726 µM (active); with SR, < 0.01 µM (active); in the assay on U-251 it was 0.000284 µM (active); in the assay with UACC-62 it was < 0.0001 µM (active).
